The record followed here is patent US20200207872A1, “METHODS FOR TREATING INFLAMMATION AND RELATED DISEASES AND DISORDERS BY INHIBITING ALPHA PROTEIN KINASE 1” (Shanghai Yao Yuan Biotechnology Co., Ltd., priority 2017, published 2020).

Structures are written as SMILES.

The target of assay [1] is ALPK1 (Homo sapiens, UniProt Q96QP1). Description: Screening of small molecule libraries for inhibitory activity against ALPK1 (binding, kinase and cell-based cytokine secretion assays). To be noted: performance in the binding and kinase assays and in at least two cell-based assays. The format is biochemical. An excerpt: An ALPK1 inhibitor was identified by screening libraries of small molecules for inhibitory activity against ALPK1. Various assays were used to screen the libraries including binding assays, kinases assays, and cell-based assays for cytokine secretion.
ALPK1, sequence (Q96QP1 whole entry): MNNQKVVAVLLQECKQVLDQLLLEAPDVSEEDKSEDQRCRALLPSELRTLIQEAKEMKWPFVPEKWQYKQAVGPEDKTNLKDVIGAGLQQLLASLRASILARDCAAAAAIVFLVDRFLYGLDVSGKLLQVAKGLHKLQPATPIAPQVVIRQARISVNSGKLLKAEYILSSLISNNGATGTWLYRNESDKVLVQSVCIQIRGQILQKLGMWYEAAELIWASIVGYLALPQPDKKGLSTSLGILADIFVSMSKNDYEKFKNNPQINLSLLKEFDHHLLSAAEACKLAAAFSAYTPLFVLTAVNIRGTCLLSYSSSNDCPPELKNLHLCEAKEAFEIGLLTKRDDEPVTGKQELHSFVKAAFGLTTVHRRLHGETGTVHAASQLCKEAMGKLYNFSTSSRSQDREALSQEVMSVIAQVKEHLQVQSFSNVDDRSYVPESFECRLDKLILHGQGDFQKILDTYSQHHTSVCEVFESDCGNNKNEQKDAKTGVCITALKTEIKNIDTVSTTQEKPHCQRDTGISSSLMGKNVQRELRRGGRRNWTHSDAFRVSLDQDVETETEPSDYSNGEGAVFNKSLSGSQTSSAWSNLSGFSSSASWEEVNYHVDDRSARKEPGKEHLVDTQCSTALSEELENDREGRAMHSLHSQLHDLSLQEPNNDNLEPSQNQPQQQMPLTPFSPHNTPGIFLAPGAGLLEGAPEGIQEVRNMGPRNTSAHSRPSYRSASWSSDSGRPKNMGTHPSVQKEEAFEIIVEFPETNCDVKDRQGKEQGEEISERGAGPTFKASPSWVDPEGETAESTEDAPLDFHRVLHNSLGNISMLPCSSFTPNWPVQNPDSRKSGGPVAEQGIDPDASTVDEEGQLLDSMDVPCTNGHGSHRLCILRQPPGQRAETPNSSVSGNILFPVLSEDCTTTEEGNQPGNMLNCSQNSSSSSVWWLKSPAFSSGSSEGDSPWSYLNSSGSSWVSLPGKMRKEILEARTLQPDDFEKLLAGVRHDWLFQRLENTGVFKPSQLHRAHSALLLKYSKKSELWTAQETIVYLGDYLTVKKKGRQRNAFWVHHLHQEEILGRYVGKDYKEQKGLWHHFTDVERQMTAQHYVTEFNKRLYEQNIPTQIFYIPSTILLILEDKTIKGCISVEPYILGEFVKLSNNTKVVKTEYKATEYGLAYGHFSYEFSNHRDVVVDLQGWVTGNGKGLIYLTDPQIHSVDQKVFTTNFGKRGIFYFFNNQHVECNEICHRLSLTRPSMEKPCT

For assay [2], the system named is DSS-induced colitis model. Description: DSS-induced colitis model, body weight. In kind it is in vivo. To be noted: female wild type FVC mice, 3% DSS day 0 to day 5, then 1 mg/kg IP daily in DMSO vs DMSO alone. As for the experimental part:
Mice were treated with 3% DSS from day 0 to day 5 then changed to drinking water and injected IP with either MI6C (1 mg/kg) dissolved in DMSO (n=6) or DMSO alone (n=5) daily.
The ability of MI6 to ameliorate inflammation in the DSS-induced colitis model was evaluated as follows. 8 weeks old female wild type FVC mice were treated with 3% DSS (Sodium salt, MW 40K-50K, from Affymetrix) from day 0 to day 5. The mice were then changed to drinking water. Mice were injected intraperitoneally (IP) with either MI6 (1 mg/kg) dissolved in DMSO (n=6) or DMSO alone (n=5) daily. Animals were weighed daily.

For the molecule `CCCCCCCCCCCCCCCC[n+]1ccn(Cc2ccccc2)c1C` [MI6, 1-benzyl-3-hexadecyl-2-methyl-1H-imidazol-3-ium], the “inhibitory activity against ALPK1” value in assay [1] is “identified as an ALPK1 inhibitor”. Besides, the “weight gain (change in weight relative to day 0) / recovery” value is “improved weight gain” in assay [2] and “improves recovery” in assay [2] (listed as MI6C).
